One block for each compound: values may come before it. Activity calls are given as the source filed them. The rule behind the calls is not given here.
Tests used:
[1] = target: T1, Serine/threonine-protein kinase STK11 (Rattus norvegicus) (UniProt D4AE59); test: Activation of LKB1 in rat L6 cells assessed as fold increase in phosphorylation at Ser428 at 10 uM incubated for 24 hrs by Western blot analysis; format: cell-based
T1 sequence (whole entry): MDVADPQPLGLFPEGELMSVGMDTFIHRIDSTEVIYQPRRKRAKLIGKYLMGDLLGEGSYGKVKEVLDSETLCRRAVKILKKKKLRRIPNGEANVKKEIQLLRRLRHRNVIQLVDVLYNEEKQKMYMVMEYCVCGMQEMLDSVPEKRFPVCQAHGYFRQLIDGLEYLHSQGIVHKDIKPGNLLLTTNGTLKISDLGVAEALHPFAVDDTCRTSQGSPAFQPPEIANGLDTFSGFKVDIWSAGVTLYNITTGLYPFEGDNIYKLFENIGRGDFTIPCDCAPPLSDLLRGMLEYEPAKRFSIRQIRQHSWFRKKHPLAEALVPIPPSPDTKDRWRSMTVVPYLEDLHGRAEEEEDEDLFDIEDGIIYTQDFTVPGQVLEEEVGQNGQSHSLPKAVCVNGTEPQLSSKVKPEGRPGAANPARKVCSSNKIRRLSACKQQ

[2] = target: T1, Serine/threonine-protein kinase STK11 (Rattus norvegicus); test: Activation of LKB1 in rat L6 cells assessed as fold increase in phosphorylation at Ser428 at 25 uM incubated for 24 hrs by Western blot analysis; format: cell-based; conditions: filed as activator
L6 [3] = test: Induction of glucose uptake in rat L6 cells assessed as fold increase by measuring 2-NBDG uptake at 2.5 uM preincubated in high glucose medium for 48 hrs followed by compound addition and measured after 24 hrs; format: functional
L6 [4] = test: Induction of glucose uptake in rat L6 cells assessed as fold increase by measuring 2-NBDG uptake at 0.25 uM preincubated in high glucose medium for 48 hrs followed by compound addition and measured after 24 hrs; format: functional
L6 [5] = test: Induction of glucose uptake in rat L6 cells assessed as fold increase by measuring 2-NBDG uptake at 25 uM preincubated in high glucose medium for 48 hrs followed by compound addition and measured after 24 hrs; format: functional
[6] = target: T2, AMP-activated protein kinase, AMPK (Rattus norvegicus) (UniProt P54645+Q09137+P80386+P80385+Q9QZH4+Q6V7V4+D4A7E4); test: Activation of AMPK phosphorylation in rat L6 cells incubated for 24 hrs by Western blot analysis; format: cell-based; conditions: filed as activator, dose 0.6-9.31 µM
[7] = Half life in C57BL/6 mouse at 5 mg/kg, iv; format: ADME, organism-based; conditions: in vivo
L6 [8] = test: Inhibition of AKT phosphorylation at Ser473 in rat L6 cells assessed as fold reduction at 10 uM incubated for 24 hrs by Western blot analysis (reference value: 1.1); format: cell-based
[9] = target: T2, AMP-activated protein kinase, AMPK (Rattus norvegicus); test: Activation of AMPK phosphorylation at Thr172 residue in rat L6 cells assessed as fold increase at 5 uM incubated for 24 hrs by Western blot analysis (reference value: 0.6); format: cell-based; conditions: filed as activator
[10] = target: T1, Serine/threonine-protein kinase STK11 (Rattus norvegicus); test: Activation of LKB1 in rat L6 cells assessed as fold increase in phosphorylation at Ser428 at 2.5 uM incubated for 24 hrs by Western blot analysis (reference value: 4.6); format: cell-based; conditions: filed as activator
L6 [11] = test: Inhibition of AKT phosphorylation at Ser473 in rat L6 cells assessed as fold reduction at 5 uM incubated for 24 hrs by Western blot analysis (reference value: 1.1); format: cell-based
L6 [12] = test: Inhibition of AKT phosphorylation at Ser473 in rat L6 cells assessed as fold reduction at 0.1 uM incubated for 24 hrs by Western blot analysis (reference value: 1.1); format: cell-based
INS-1E [13] = test: Anti-hyperglycemic activity in rat INS-1E cells assessed as total intracellular insulin secretion at 2 uM after 24 hrs; format: functional, cell-based
[14] = target: T2, AMP-activated protein kinase, AMPK (Rattus norvegicus); test: Activation of AMPK phosphorylation at Thr172 residue in rat L6 cells assessed as fold increase at 0.5 uM incubated for 24 hrs by Western blot analysis (reference value: 0.6); format: cell-based; conditions: filed as activator
[15] = target: T1, Serine/threonine-protein kinase STK11 (Rattus norvegicus); test: Activation of LKB1 in rat L6 cells assessed as fold increase in phosphorylation at Ser428 at 0.5 uM incubated for 24 hrs by Western blot analysis (reference value: 4.6); format: cell-based; conditions: filed as activator
[16] = target: T1, Serine/threonine-protein kinase STK11 (Rattus norvegicus); test: Activation of LKB1 in rat L6 cells assessed as fold increase in phosphorylation at Ser428 at 0.1 uM incubated for 24 hrs by Western blot analysis (reference value: 4.6); format: cell-based; conditions: filed as activator
INS-1E [17] = test: Anti-hyperglycemic activity in rat INS-1E cells assessed as glucose stimulated insulin secretion at 1 to 2 uM after 24 hrs; format: functional, cell-based; conditions: dose 1-2 µM
[18] = target: T2, AMP-activated protein kinase, AMPK (Rattus norvegicus); test: Activation of AMPK phosphorylation in rat INS-1E cells incubated for 24 hrs; format: cell-based; conditions: filed as activator, dose 0.5-2 µM
[19] = target: T2, AMP-activated protein kinase, AMPK (Rattus norvegicus); test: Activation of AMPK phosphorylation at Thr172 residue in rat L6 cells assessed as fold increase at 2.5 uM incubated for 24 hrs by Western blot analysis (reference value: 0.6); format: cell-based; conditions: filed as activator
[20] = target: T2, AMP-activated protein kinase, AMPK (Rattus norvegicus); test: Activation of AMPK phosphorylation at Thr172 residue in rat L6 cells assessed as fold increase at 0.1 uM incubated for 24 hrs by Western blot analysis (reference value: 0.6); format: cell-based; conditions: filed as activator
[21] = target: T2, AMP-activated protein kinase, AMPK (Rattus norvegicus); test: Activation of AMPK phosphorylation at Thr172 residue in rat L6 cells assessed as fold increase at 0.25 uM incubated for 24 hrs by Western blot analysis (reference value: 0.6); format: cell-based; conditions: filed as activator
L6 [22] = test: Inhibition of AKT phosphorylation at Ser473 in rat L6 cells assessed as fold reduction at 0.5 uM incubated for 24 hrs by Western blot analysis (reference value: 1.1); format: cell-based
L6 [23] = test: Inhibition of AKT phosphorylation at Ser473 in rat L6 cells assessed as fold reduction at 1 uM incubated for 24 hrs by Western blot analysis (reference value: 1.1); format: cell-based
[24] = Half life in C57BL/6 mouse blood; format: ADME, tissue-based
L6 [25] = test: Inhibition of AKT phosphorylation at Ser473 in rat L6 cells assessed as fold reduction at 2.5 uM incubated for 24 hrs by Western blot analysis (reference value: 1.1); format: cell-based
[26] = target: T2, AMP-activated protein kinase, AMPK (Rattus norvegicus); test: Activation of AMPK phosphorylation at Thr172 residue in rat L6 cells assessed as fold increase at 10 uM incubated for 24 hrs by Western blot analysis (reference value: 0.6); format: cell-based; conditions: filed as activator
[27] = target: T2, AMP-activated protein kinase, AMPK (Rattus norvegicus); test: Activation of AMPK phosphorylation in rat INS-1E beta-cells at 2 uM incubated for 24 hrs; format: cell-based; conditions: filed as activator
[28] = Oral bioavailability in C57BL/6 mouse at 25 mg/kg; format: ADME, organism-based; conditions: in vivo
[29] = Cmax in C57BL/6 mouse at 25 mg/kg, po; format: ADME, organism-based; parameters: dose 25 mg/kg, route po; conditions: in vivo
[30] = target: T1, Serine/threonine-protein kinase STK11 (Rattus norvegicus); test: Activation of LKB1 in rat L6 cells assessed as fold increase in phosphorylation at Ser428 at 0.25 uM incubated for 24 hrs by Western blot analysis (reference value: 4.6); format: cell-based; conditions: filed as activator
[31] = Volume of distribution at steady state in C57BL/6 mouse at 5 mg/kg, iv; format: ADME, organism-based; conditions: in vivo, read-out: Vdss
[32] = Half life in C57BL/6 mouse at 25 mg/kg, po; format: ADME, organism-based; conditions: in vivo
[33] = target: T1, Serine/threonine-protein kinase STK11 (Rattus norvegicus); test: Activation of LKB1 in rat L6 cells assessed as fold increase in phosphorylation at Ser428 at 10 uM incubated for 24 hrs by Western blot analysis (reference value: 4.6); format: cell-based; conditions: filed as activator
[34] = Clearance in C57BL/6 mouse at 5 mg/kg, iv; format: ADME, organism-based; conditions: in vivo
INS-1E [35] = test: Anti-hyperglycemic activity in rat INS-1E cells assessed as basal insulin secretion after 24 hrs; format: functional, cell-based
[36] = target: T1, Serine/threonine-protein kinase STK11 (Rattus norvegicus); test: Activation of LKB1 in rat L6 cells assessed as fold increase in phosphorylation at Ser428 at 1 uM incubated for 24 hrs by Western blot analysis (reference value: 4.6); format: cell-based; conditions: filed as activator
INS-1E [37] = test: Anti-hyperglycemic activity in rat INS-1E cells assessed as insulin secretion […] after 24 hrs; format: functional, cell-based
[38] = Tmax in C57BL/6 mouse at 25 mg/kg, po; format: ADME, organism-based; conditions: in vivo
[39] = target: T2, AMP-activated protein kinase, AMPK (Rattus norvegicus); test: Activation of AMPK phosphorylation at Thr172 residue in rat L6 cells assessed as fold increase at 1 uM incubated for 24 hrs by Western blot analysis (reference value: 0.6); format: cell-based; conditions: filed as activator
[40] = target: T1, Serine/threonine-protein kinase STK11 (Rattus norvegicus); test: Activation of LKB1 in rat L6 cells assessed as fold increase in phosphorylation at Ser428 at 5 uM incubated for 24 hrs by Western blot analysis (reference value: 4.6); format: cell-based; conditions: filed as activator
L6 [41] = test: Inhibition of AKT phosphorylation at Ser473 in rat L6 cells assessed as fold reduction at 0.25 uM incubated for 24 hrs by Western blot analysis (reference value: 1.1); format: cell-based

Activity [1]: 30%
Activity [2]: 80%
Structure (SMILES): c1ccc(C2CCc3cc(C4SCCCCS4)ccc3O2)cc1 (stereo not given)

Structure (SMILES): OCCSC(SCCO)c1ccc2c(c1)CCC(c1ccco1)O2 (stereo not given)
fold change (FC) (L6 [3]): 1
fold change (FC) (L6 [4]): 1.1
fold change (FC) (L6 [5]): 1.5

Structure (SMILES): OCCSC(SCCO)c1ccc2c(c1)OCC(c1ccccc1)O2 (stereo not given)
fold change (FC) (L6 [3]): 1.2
fold change (FC) (L6 [4]): 1.1
fold change (FC) (L6 [5]): 1.7

Structure (SMILES): c1ccc(C2COc3cc(C4SCCCCS4)ccc3O2)cc1 (stereo not given)
fold change (FC) (L6 [3]): 1
fold change (FC) (L6 [4]): 1
fold change (FC) (L6 [5]): 1.1

Activity [6]: Dose-Dependent Effect
half-life [7]: 49.6 min
fold change (FC) [9]: 6.32
fold change (FC) [10]: 4.1
fold change (FC) [14]: 1.33
fold change (FC) [15]: 5.25
fold change (FC) [16]: 5.56
Activity [18]: Dose-Dependent Effect
fold change (FC) [19]: 5.11
fold change (FC) [20]: 0.5
fold change (FC) [21]: 2.33
half-life [24]: 66.6 min
fold change (FC) [26]: 9
Activity [27]: Active
bioavailability [28]: 99%
Cmax [29]: 7630 ng/mL
fold change (FC) [30]: 5.33
Vd [31]: 1.23 L/kg
half-life [32]: 66.6 min
fold change (FC) [33]: 5
clearance [34]: 31.2 mL/min/kg
fold change (FC) [36]: 5.71
Tmax [38]: 30 min
fold change (FC) [39]: 1.58
fold change (FC) [40]: 4.78
Structure (SMILES): c1cc(C2CCc3cc(C4SCCCS4)ccc3O2)ccn1 (stereo not given)
fold change (FC) (L6 [8]): 0.18
fold change (FC) (L6 [11]): 0.25
fold change (FC) (L6 [12]): 1.1
Activity (INS-1E [13]): inactive
fold change (FC) (L6 [3]): 1.2
Activity (INS-1E [17]): Active
fold change (FC) (L6 [22]): 0.12
fold change (FC) (L6 [23]): 0.3
fold change (FC) (L6 [4]): 1.8
fold change (FC) (L6 [25]): 0.18
fold change (FC) (L6 [5]): 1.1
Activity (INS-1E [35]): inactive
Activity (INS-1E [37]): Dose-Dependent Effect
fold change (FC) (L6 [41]): 0.22

Structure (SMILES): c1cncc(C2CCc3cc(C4SCCCS4)ccc3O2)c1 (stereo not given)
fold change (FC) (L6 [3]): 1
fold change (FC) (L6 [4]): 1
fold change (FC) (L6 [5]): 1.3

Structure (SMILES): COc1cccc(C2CCc3cc(C4SCCCS4)ccc3O2)c1 (stereo not given)
fold change (FC) (L6 [3]): 1
fold change (FC) (L6 [4]): 1
fold change (FC) (L6 [5]): 1.5

Structure (SMILES): O[C@H]1CS[C@H](c2ccc3c(c2)CCC(c2ccccc2)O3)SC1 (stereo not given in full)
fold change (FC) (L6 [3]): 0.9
fold change (FC) (L6 [4]): 1.1
fold change (FC) (L6 [5]): 1

Structure (SMILES): OCCSC(SCCO)c1ccc2c(c1)CCC(c1ccccc1)O2 (stereo not given)
fold change (FC) (L6 [3]): 1
fold change (FC) (L6 [4]): 1
fold change (FC) (L6 [5]): 1.5

Structure (SMILES): c1coc(C2CCc3cc(C4SCCCS4)ccc3O2)c1 (stereo not given)
fold change (FC) (L6 [3]): 1
fold change (FC) (L6 [4]): 1
fold change (FC) (L6 [5]): 1.2
